EPA's ToxValDB 9.5 (doi:10.2903/j.efsa.2012.2921)
Where “and” joins values, the source holds several entries; their conditions need not be identical. Identical values can stand only once.

Tests used:
Oncorhynchus mykiss = conditions: acute; duration: 96 hours; mortality
Folsomia candida = conditions: chronic/long-term
Rattus norvegicus = conditions: for NOAEL: no effects
Apis mellifera = conditions: acute, mortality
Bibionidae = conditions: chronic/long-term; duration: 28 days
Pimephales promelas = conditions: chronic/long-term; duration: 33 days; growth
Mus musculus = conditions: no effects
Daphnia magna = conditions: chronic/long-term; duration: 21 days; reproduction
Tagia sp. = conditions: acute; duration: 14 days; mortality
Canidae = conditions: chronic; duration: 1 years; oral; Dog Other; no effects
Oryctolagus sp. = conditions: reproduction developmental; no effects
[1] = subchronic, duration: 90 days, oral

What does the source list for `CCCCCCCCc1c(CC)nc2ncnn2c1N` [Ametoctradin]?
LD50 (Anas platyrhynchos; acute, oral, unspecified, mortality): > 2000 mg/kg-day; NOEC (Anas platyrhynchos; reproductive): ≥ 188 mg/kg-day; LC50 (Anas platyrhynchos; short-term, oral, feed, mortality): > 1550 mg/kg-day; LC50 (Oncorhynchus mykiss): > 0.0646 µg/mL; NOEC (Folsomia candida): ≥ 268 mg/kg; LC50 (Colinus virginianus; acute, oral, diet, mortality): > 758 mg/kg-day; LD50 (Colinus virginianus; acute, oral, mortality): > 2000 mg/kg-day; NOEC (Colinus virginianus; reproduction developmental): ≥ 115 mg/kg-day; LD50 (Rattus norvegicus; acute, oral, mortality): > 2000 mg/kg-day; NOAEL (Rattus norvegicus; chronic, duration: 2 years): 871 mg/kg-day; NOAEL (Rattus norvegicus; reproduction developmental): ≥ 939 mg/kg-day and 1000 mg/kg-day; NOAEL (Rattus norvegicus; [1]): 1080 mg/kg-day; LD50 (Apis mellifera; dermal): > 100 µg/piece; LD50 (Apis mellifera; oral, unspecified): > 112 µg/piece; NOEC (Bibionidae): 222 mg/kg; NOEC (Pimephales promelas): 0.048 mg/L; NOAEL (Mus musculus; chronic, duration: 18 months): 1100 mg/kg-day; NOAEL (Mus musculus; [1]): 1120 mg/kg-day; NOEC (Daphnia magna): 0.044 mg/L; LC50 (Tagia sp.): > 1000 mg/kg; NOAEL (Canidae): 848 mg/kg-day; NOAEL (Oryctolagus sp.): 1000 mg/kg-day
